Laboratory results: PubChem BioAssay (NCI)
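Interpolation was linear, between the two tested concentrations surrounding the appropriate level; five concentrations were tested over 48 hours in 96-well plates. GI50: concentration for 50% inhibition of growth. TGI marks complete inhibition of growth.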

Key:
Test in all cases: inhibition of tumour cell growth, NCI panel, 48 h
UACC-62 melanoma = tested on: UACC-62 melanoma
SNB-75 CNS = tested on: SNB-75 CNS
SF-539 CNS = tested on: SF-539 CNS
KM12 colon = tested on: KM12 colon
CAKI-1 renal = tested on: CAKI-1 renal
MALME-3M melanoma = tested on: MALME-3M melanoma
HOP-62 NSCLC = tested on: HOP-62 NSCLC
DU-145 prostate = tested on: DU-145 prostate
SF-295 CNS = tested on: SF-295 CNS
SK-MEL-5 melanoma = tested on: SK-MEL-5 melanoma
SW-620 colon = tested on: SW-620 colon
MDA-MB-435 = tested on: MDA-MB-435
T-47D breast = tested on: T-47D breast
SK-MEL-2 melanoma = tested on: SK-MEL-2 melanoma
RPMI-8226 leukemia = tested on: RPMI-8226 leukemia
OVCAR-8 ovarian = tested on: OVCAR-8 ovarian
NCI-H460 lung = tested on: NCI-H460 lung
786-0 renal = tested on: 786-0 renal
NCI/ADR-RES ovarian = tested on: NCI/ADR-RES ovarian
HOP-92 NSCLC = tested on: HOP-92 NSCLC
TK-10 renal = tested on: TK-10 renal
OVCAR-3 ovarian = tested on: OVCAR-3 ovarian
NCI-H226 lung = tested on: NCI-H226 lung
HCC-2998 colon = tested on: HCC-2998 colon
MDA-MB-231 breast = tested on: MDA-MB-231 breast
M14 melanoma = tested on: M14 melanoma
PC-3 prostate = tested on: PC-3 prostate
SNB-19 CNS = tested on: SNB-19 CNS
HCT-15 colon = tested on: HCT-15 colon
RXF 393 renal = tested on: RXF 393 renal
HS 578T breast = tested on: HS 578T breast
NCI-H23 lung = tested on: NCI-H23 lung
NCI-H522 lung = tested on: NCI-H522 lung
HCT-116 colon = tested on: HCT-116 colon
BT-549 breast = tested on: BT-549 breast
MDA-N = tested on: MDA-N
SK-MEL-28 melanoma = tested on: SK-MEL-28 melanoma
HT29 colon = tested on: HT29 colon
OVCAR-5 ovarian = tested on: OVCAR-5 ovarian
A549 NSCLC = tested on: A549 NSCLC
SR leukemia = tested on: SR leukemia
K-562 leukemia = tested on: K-562 leukemia
MCF7 breast = tested on: MCF7 breast
SF-268 CNS = tested on: SF-268 CNS
ACHN renal = tested on: ACHN renal
IGROV1 ovarian = tested on: IGROV1 ovarian
U251 CNS = tested on: U251 CNS
UO-31 renal = tested on: UO-31 renal
SN12C renal = tested on: SN12C renal
MOLT-4 leukemia = tested on: MOLT-4 leukemia
UACC-257 melanoma = tested on: UACC-257 melanoma
HL-60(TB) leukemia = tested on: HL-60(TB) leukemia
EKVX NSCLC = tested on: EKVX NSCLC
CCRF-CEM leukemia = tested on: CCRF-CEM leukemia
COLO 205 colon = tested on: COLO 205 colon
SK-OV-3 ovarian = tested on: SK-OV-3 ovarian
A498 renal = tested on: A498 renal
OVCAR-4 ovarian = tested on: OVCAR-4 ovarian
LOX IMVI melanoma = tested on: LOX IMVI melanoma

Work on `CCOC(=O)Nn1c(CC#N)nnc1Cc1ccccc1` yielded a TGI (UACC-62 melanoma) of over 100 µM, a TGI (SNB-75 CNS) of over 100 µM and a TGI (SF-539 CNS) of over 100 µM. The TGI (KM12 colon) was over 100 µM, the TGI (CAKI-1 renal) was over 100 µM and the TGI (MALME-3M melanoma) was over 100 µM. For the same molecule, the TGI (HOP-62 NSCLC) was over 100 µM, the TGI (DU-145 prostate) was over 100 µM and the TGI (SF-295 CNS) was over 100 µM. The TGI (SK-MEL-5 melanoma) was over 100 µM, the TGI (SW-620 colon) was over 100 µM and the TGI (MDA-MB-435) was over 100 µM. For the same molecule, the TGI (T-47D breast) was over 100 µM, the TGI (SK-MEL-2 melanoma) was over 100 µM and the TGI (RPMI-8226 leukemia) was over 100 µM. The TGI (OVCAR-8 ovarian) was over 100 µM, the TGI (NCI-H460 lung) was over 100 µM and the TGI (786-0 renal) was over 100 µM. It also gave a TGI (NCI/ADR-RES ovarian) of over 100 µM, a TGI (HOP-92 NSCLC) of over 100 µM and a TGI (TK-10 renal) of over 100 µM. For the same molecule, the TGI (OVCAR-3 ovarian) was over 100 µM, the TGI (NCI-H226 lung) was over 100 µM and the TGI (HCC-2998 colon) was over 100 µM. The TGI (MDA-MB-231 breast) was over 100 µM, the TGI (M14 melanoma) was over 100 µM and the TGI (PC-3 prostate) was over 100 µM. For the same molecule, the TGI (SNB-19 CNS) was over 100 µM, the TGI (HCT-15 colon) was over 100 µM and the TGI (RXF 393 renal) was over 100 µM. For the same molecule, the TGI (HS 578T breast) was over 100 µM, the TGI (NCI-H23 lung) was over 100 µM and the TGI (NCI-H522 lung) was over 100 µM. It also gave a TGI (HCT-116 colon) of over 100 µM, a TGI (BT-549 breast) of over 100 µM and a TGI (MDA-N) of over 100 µM. For the same molecule, the TGI (SK-MEL-28 melanoma) was over 100 µM, the TGI (HT29 colon) was over 100 µM and the TGI (OVCAR-5 ovarian) was over 100 µM. It also gave a TGI (A549 NSCLC) of over 100 µM, a TGI (SR leukemia) of over 100 µM and a TGI (K-562 leukemia) of over 100 µM. The TGI (MCF7 breast) was over 100 µM, the TGI (SF-268 CNS) was over 100 µM and the TGI (ACHN renal) was over 100 µM. For the same molecule, the TGI (IGROV1 ovarian) was over 100 µM, the TGI (U251 CNS) was over 100 µM and the TGI (UO-31 renal) was over 100 µM. It also gave a TGI (SN12C renal) of over 100 µM, a TGI (MOLT-4 leukemia) of over 100 µM and a TGI (UACC-257 melanoma) of over 100 µM. The TGI (HL-60(TB) leukemia) was over 100 µM.

`C#CCn1c(=O)c(C)cn(/C(=C\C(=O)OCC)C(=O)OCC)c1=O` gave a TGI (UACC-62 melanoma) of 23 µM, a TGI (SNB-75 CNS) of 36 µM and a TGI (EKVX NSCLC) of 30.1 µM. It also gave a TGI (SF-539 CNS) of 4.25 µM, a TGI (KM12 colon) of 53.6 µM and a TGI (CAKI-1 renal) of 2.86 µM. The GI50 (CCRF-CEM leukemia) was 0.7 µM, the TGI (CCRF-CEM leukemia) was 8 µM and the TGI (MALME-3M melanoma) was 5.6 µM. The TGI (HOP-62 NSCLC) was 39.2 µM, the GI50 (COLO 205 colon) was 1.52 µM and the TGI (COLO 205 colon) was 3.12 µM. For the same molecule, the TGI (DU-145 prostate) was 35 µM, the TGI (SF-295 CNS) was 42.3 µM and the TGI (SK-MEL-5 melanoma) was over 100 µM. For the same molecule, the GI50 (SW-620 colon) was 2.14 µM, the TGI (SW-620 colon) was over 100 µM and the TGI (MDA-MB-435) was 21.2 µM. It also gave a TGI (T-47D breast) of 5.95 µM, a TGI (SK-MEL-2 melanoma) of 32.8 µM and a TGI (RPMI-8226 leukemia) of over 23.2 µM. It also gave a TGI (OVCAR-8 ovarian) of 13.2 µM, a TGI (NCI-H460 lung) of 8.06 µM and a TGI (SK-OV-3 ovarian) of over 56.4 µM. It also gave a TGI (786-0 renal) of over 100 µM, a TGI (NCI/ADR-RES ovarian) of 17.1 µM and a TGI (HOP-92 NSCLC) of 5.17 µM. For the same molecule, the TGI (TK-10 renal) was 3.44 µM, the TGI (OVCAR-3 ovarian) was 18.4 µM and the TGI (NCI-H226 lung) was 36.1 µM. The TGI (MDA-MB-231 breast) was 31.2 µM, the TGI (M14 melanoma) was 11.3 µM and the TGI (PC-3 prostate) was 27.6 µM. It also gave a TGI (SNB-19 CNS) of 39.4 µM, a TGI (HCT-15 colon) of 8.23 µM and a TGI (RXF 393 renal) of 4.49 µM. It also gave a TGI (HS 578T breast) of 62 µM, a TGI (A498 renal) of 40.8 µM and a TGI (NCI-H23 lung) of 27.3 µM. It also gave a TGI (HCT-116 colon) of 10.3 µM, a TGI (BT-549 breast) of 22.8 µM and a TGI (MDA-N) of 22.2 µM. The GI50 (SK-MEL-28 melanoma) was 14.5 µM, the TGI (SK-MEL-28 melanoma) was 31 µM and the TGI (HT29 colon) was 4.03 µM. For the same molecule, the TGI (OVCAR-5 ovarian) was 23.9 µM, the TGI (A549 NSCLC) was 39.2 µM and the TGI (SR leukemia) was over 27.6 µM. For the same molecule, the TGI (K-562 leukemia) was over 100 µM, the TGI (MCF7 breast) was 11.9 µM and the TGI (SF-268 CNS) was 35.7 µM. For the same molecule, the TGI (ACHN renal) was 3.22 µM, the TGI (IGROV1 ovarian) was 15.3 µM and the TGI (U251 CNS) was 15 µM. For the same molecule, the TGI (UO-31 renal) was 25.5 µM, the TGI (SN12C renal) was 33.9 µM and the TGI (MOLT-4 leukemia) was over 26.5 µM. The TGI (UACC-257 melanoma) was 28.2 µM, the TGI (HL-60(TB) leukemia) was over 100 µM and the TGI (OVCAR-4 ovarian) was 6.35 µM. The TGI (LOX IMVI melanoma) was over 50.2 µM.

`O=C(N/N=C/C=C/c1ccccc1)c1ccccc1Nc1ccccc1C(=O)N/N=C/C=C/c1ccccc1` was tested, and the TGI (UACC-62 melanoma) was over 100 µM, the TGI (SNB-75 CNS) was over 100 µM and the TGI (EKVX NSCLC) was over 100 µM. It also gave a TGI (KM12 colon) of over 100 µM, a TGI (CAKI-1 renal) of over 100 µM and a TGI (CCRF-CEM leukemia) of over 100 µM. For the same molecule, the TGI (MALME-3M melanoma) was over 100 µM, the TGI (HOP-62 NSCLC) was 70.4 µM and the TGI (COLO 205 colon) was over 100 µM. For the same molecule, the TGI (DU-145 prostate) was over 100 µM, the TGI (SF-295 CNS) was over 100 µM and the TGI (SK-MEL-5 melanoma) was over 100 µM. For the same molecule, the TGI (SW-620 colon) was over 100 µM, the TGI (MDA-MB-435) was over 100 µM and the TGI (T-47D breast) was over 100 µM. It also gave a TGI (SK-MEL-2 melanoma) of over 100 µM, a TGI (RPMI-8226 leukemia) of over 100 µM and a TGI (OVCAR-8 ovarian) of over 100 µM. It also gave a TGI (NCI-H460 lung) of over 100 µM, a TGI (SK-OV-3 ovarian) of over 100 µM and a TGI (786-0 renal) of over 100 µM. The TGI (NCI/ADR-RES ovarian) was over 100 µM, the TGI (HOP-92 NSCLC) was over 100 µM and the TGI (TK-10 renal) was over 100 µM. For the same molecule, the TGI (OVCAR-3 ovarian) was over 100 µM, the TGI (NCI-H226 lung) was over 100 µM and the TGI (HCC-2998 colon) was over 100 µM. For the same molecule, the TGI (MDA-MB-231 breast) was over 100 µM, the TGI (M14 melanoma) was over 100 µM and the TGI (PC-3 prostate) was over 100 µM. It also gave a TGI (SNB-19 CNS) of over 100 µM, a TGI (HCT-15 colon) of over 100 µM and a TGI (RXF 393 renal) of over 100 µM. The TGI (HS 578T breast) was over 100 µM, the TGI (A498 renal) was over 100 µM and the TGI (NCI-H23 lung) was over 100 µM. For the same molecule, the TGI (HCT-116 colon) was over 100 µM, the TGI (BT-549 breast) was over 100 µM and the TGI (MDA-N) was over 100 µM. It also gave a TGI (SK-MEL-28 melanoma) of over 100 µM, a TGI (HT29 colon) of over 100 µM and a TGI (OVCAR-5 ovarian) of over 100 µM. The TGI (A549 NSCLC) was over 100 µM, the TGI (SR leukemia) was over 100 µM and the TGI (K-562 leukemia) was over 100 µM. It also gave a TGI (MCF7 breast) of over 100 µM, a TGI (SF-268 CNS) of over 100 µM and a TGI (ACHN renal) of over 100 µM. For the same molecule, the TGI (IGROV1 ovarian) was over 100 µM, the TGI (U251 CNS) was over 100 µM and the TGI (UO-31 renal) was over 100 µM. It also gave a TGI (SN12C renal) of over 100 µM, a TGI (MOLT-4 leukemia) of over 100 µM and a TGI (UACC-257 melanoma) of over 100 µM. The TGI (HL-60(TB) leukemia) was over 100 µM and the TGI (OVCAR-4 ovarian) was over 100 µM.
